The results in this text go back to US20090011418A1, “FUNCTIONAL TOLL-LIKE RECEPTORS (TLR) ON MELANOCYTES AND MELANOMA CELLS AND USES THEREOF” (JOHN WAYNE CANCER INSTITUTE, priority 2007, published 2009).

The target in assay [1] is T1, TLR4 on the cell surface of melanoma lines (Homo sapiens, UniProt O00206+Q9Y6Y9).
T1 construct: endogenous in cells; host or cells: human melanoma cell lines (fixed with paraformaldehyde); PBLs as comparison
Nature of the assay: FITC-LPS fluorescence microscopy binding. Particulars: 20 μg/ml FITC-LPS, 20 min, fixed cells. The method, then:
(§1) Cells were fixed with 4% paraformaldehyde in PBS for 10 min, and then incubated inside a 37° C. humidified atmosphere containing 5% CO2 for 20 min in RPMI 1640 medium supplemented with 10% FBS and 20 μg/ml of fluorescein isothiocyanate (FITC)-LPS (Sigma, St Louis, Mo.). After washing, cells were visualized using an Olympus IX70 fluorescence microscope. The images were recorded using an Olympus C-3030 Zoom Camedia Digital Camera.
The inventors employed FITC-LPS to assess binding to TLR4 on the cell surface of melanoma lines. PIC-FITC and zymosan-FITC were not available for assessment. […] The FITC-LPS analysis confirmed TLR4 receptor staining on the melanoma cell surface.

Another assay relates to PBLs. Nature of the assay: FITC-LPS fluorescence microscopy staining. Type of assay: binding, human. Particulars: 20 μg/ml FITC-LPS, 20 min, fixed cells. The method, then: as §1, with “Camera. […] The inventors employed FITC-LPS to assess binding to TLR4 on the cell surface of melanoma lines. PIC-FITC and zymosan-FITC were not available for assessment. […] The FITC-LPS analysis confirmed TLR4 receptor staining on the melanoma cell surface.” for “Camera.”

T1 sequence (O00206 24-839): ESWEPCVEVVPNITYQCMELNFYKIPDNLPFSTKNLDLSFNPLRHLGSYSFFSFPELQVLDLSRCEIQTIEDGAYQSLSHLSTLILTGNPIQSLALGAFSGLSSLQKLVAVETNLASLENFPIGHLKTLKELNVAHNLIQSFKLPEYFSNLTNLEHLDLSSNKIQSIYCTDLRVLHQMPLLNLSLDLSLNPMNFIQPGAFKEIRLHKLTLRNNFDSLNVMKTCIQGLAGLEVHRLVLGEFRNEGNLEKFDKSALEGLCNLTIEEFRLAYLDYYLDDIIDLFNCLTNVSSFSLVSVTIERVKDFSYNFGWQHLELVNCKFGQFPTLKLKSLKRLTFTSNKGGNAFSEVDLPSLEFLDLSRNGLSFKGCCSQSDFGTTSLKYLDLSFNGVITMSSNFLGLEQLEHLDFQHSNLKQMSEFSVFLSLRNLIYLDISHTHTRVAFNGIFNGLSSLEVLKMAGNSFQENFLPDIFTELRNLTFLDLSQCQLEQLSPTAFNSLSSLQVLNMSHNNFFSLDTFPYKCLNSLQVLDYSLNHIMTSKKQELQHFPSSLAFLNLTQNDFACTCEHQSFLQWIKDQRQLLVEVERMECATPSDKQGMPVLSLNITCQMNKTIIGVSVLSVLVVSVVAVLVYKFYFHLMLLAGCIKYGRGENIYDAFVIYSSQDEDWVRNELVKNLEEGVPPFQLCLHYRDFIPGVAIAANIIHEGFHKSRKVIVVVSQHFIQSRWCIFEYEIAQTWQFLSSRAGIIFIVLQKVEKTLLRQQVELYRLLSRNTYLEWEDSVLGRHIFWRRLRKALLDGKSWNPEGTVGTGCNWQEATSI
T1 sequence (Q9Y6Y9 17-160 limits assumed): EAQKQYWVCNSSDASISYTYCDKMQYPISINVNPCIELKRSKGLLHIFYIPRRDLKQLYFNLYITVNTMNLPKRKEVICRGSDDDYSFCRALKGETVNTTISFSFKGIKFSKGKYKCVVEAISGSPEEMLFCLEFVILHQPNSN

As for “fluorescein isothiocyanate (FITC)-LPS [FITC-LPS]”, the “binding to melanoma cell surface (staining)” value in assay [1] is “direct binding of LPS to melanoma cells”. For the same substance, the “staining intensity of PBLs compared with melanoma cells” value in the assay with PBLs is “stained with more intensity”.
